For the assay, the system named is human plasma HDL. The assay is described as follows: human plasma HDL remodeling (NDGGE, immunoblot for human apoA-I). The settings on record: human plasma in vitro; Western blot for apoA-I; FIGS. 1 and 2a. It is filed as biochemical. The source says: As an initial phase of investigation, we evaluated in vitro the effectiveness of our cyclic D,L-α-peptides to remodel mature human plasma HDLs into lipid-poor HDL (FIG. 1 and FIG. 2a). Lipid-poor HDL particles are key acceptors of cholesterol in reverse cholesterol transport and are thus crucial for combating atherosclerosis. In fact, with respect to the cholesterol efflux capacity of human sera, the levels of lipid-poor HDL correlate much better than the levels of HDL-cholesterol or apoA-I. Briefly, our assay involved incubating human plasma with a peptide, after which the plasma sample was subjected to non-denaturing gradient gel electrophoresis (NDGGE) to separate the HDL subspecies and then immunoblotted for human apoA-I. The ranked activities of the cyclic D,L-α-peptides in promoting formation of lipid-poor HDL are shown in FIG. 1. It should be noted that there are inherent variabilities associated with electrophoretic transfer, staining, and densitometric quantitation, so the peptide ranking should be viewed as an approximate guide to relative plasma HDL remodeling efficacy. Nevertheless, the rankings were similar overall whether the panel was assayed by using peptide stock solutions prepared in 10% sucrose/H2O (FIGS. 1 and 2a) or peptide stock solutions prepared in 1:1 DMSO/H2O. From these preliminary structure-activity relationship (SAR) studies, we identified a pronounced sequence dependence for efficient plasma HDL remodeling (vide infra).
Human plasma remodeling: All procedures involving human samples were approved by TSRI Institutional Review Board. Procedures were modified from those reported in Troutt et al., J. Lipid Res. 49, 581-587, 2008. Blood samples from normal healthy human donors were obtained from TSRI Normal Blood Donor Program. EDTA-anticoagulated whole blood was centrifuged at 1500×g for 15 min within 1 h of being drawn from the donor. The plasma layer was aliquoted and used immediately or frozen at −80° C. for future use. Peptide stock solutions were prepared at ˜15 mM peptide in 50% DMSO for initial screenings, or at ˜2 mM peptide in 10% sucrose for remodeling assays at lower concentrations (FIG. 1) and cholesterol efflux assays (FIG. 2). Plasma samples (30 μL) were treated with peptide stocks, and the samples were incubated at 37° C. for 0.5-1 h, and then quenched by adding 270 μL of 50% sucrose (1:9 dilution). Samples were mixed with 6× native loading buffer (125 mM tris, pH 6.8, 0.02% bromophenol, 20% glycerol), of which 6 μL was loaded onto a 4-20% polyacrylamide gel. The molecular weight ladder used was High Molecular Weight Calibration Kit (Amersham Biosciences, #17-0445-01). […] The films were scanned and quantified by densitometry using the program LabWorks (v. 4.0.0.8). […]

Each structure is given as a SMILES string. Non-standard residues stand in square brackets, D forms with d. Residues, ends and D or L forms follow the SMILES beside them.

Consider `CC(C)C[C@@H]1NC(=O)[C@@H](Cc2c[nH]c3ccccc23)NC(=O)[C@H](CCCNC(=N)N)NC(=O)[C@@H](CCC(=O)O)NC(=O)[C@H](CCC(N)=O)NC(=O)[C@@H](CCC(=O)O)NC(=O)[C@H](CCCNC(=N)N)NC(=O)[C@@H](Cc2c[nH]c3ccccc23)NC1=O` [SEQ ID NO:1, c[wLwReQeR]] (cyclo([dW]L[dW]R[dE]Q[dE]R)), for which the “plasma HDL remodeling to lipid-poor HDL (in words)” value is recorded as “considerably more active than any of four analogs”.
